Among the data in patent publication US8158638B2, “Pyrazolopyrimidine derivative” (Daiichi Sankyo Company, Limited, priority 2006, dated 2012) are GI50 and IC50 values, retold here.

Assay [1] has as its system human breast cancer cell line SK-BR-3. Nature of the assay: Cell growth inhibition assay (MTT), SK-BR-3. It is filed as cell-based. The settings on record: read-out: GI50 value (50% growth inhibitory concentration). As for the experimental part:
(§1) A cell growth inhibition assay was performed using two types of cells (human breast cancer cell line SK-BR-3 and human lung cancer cell line NCI-H460).
(§2) Cells of each type were suspended in a medium and seeded into a 96-well multi-well plate at 500 cells/150 μl/well. The test compound was dissolved in DMSO, and this was diluted with medium to prepare a sample solution (DMSO concentration: 0.5% or less). On the day following the seeding, 50 μL of DMSO-containing medium to which the test compound was not added (hereinafter called DMSO diluted solution; DMSO concentration: 0.5% or less) or the sample solution was added to the cells. An MTT assay was performed immediately after and 72 hours after adding the sample solution or the DMSO diluted solution to the cells. The MTT assay was performed as follows.
(§3) 5 mg/mL of an MTT (3-(4,5-dimethylthiazol-2-yl)-2,5-diphenyltetrazolium bromide) solution was added at 20 μL per well. Thereafter, the plate was incubated at 37° C. in 5% CO2 for four hours. The plate was centrifuged at 1200 rpm for five minutes, and then the culture supernatant was removed by suction using a dispenser. DMSO was added at 150 μL per well, and the generated formazan was dissolved. The plate was stirred using a plate mixer to uniformly color the respective wells. The absorbance of each well was measured using a plate reader at an OD of 540 nm with a reference of 660 nm.
(§4) T/C (%) for each concentration was determined by the following calculation formula and a dose-response curve was drawn to calculate the 50% growth inhibitory concentration (GI50 value), based on the assumption that the OD value measured immediately after adding the sample solution was S, the OD value measured 72 hours after adding the sample solution was T, and the OD value measured 72 hours after adding the DMSO diluted solution was C. T/C(%)=(T−S)/(C−S)×100

Assay [2] has as its system human lung cancer cell line NCI-H460. Description: Cell growth inhibition assay (MTT), NCI-H460. It is filed as cell-based. To be noted: read-out: GI50 value (50% growth inhibitory concentration). As for the experimental part: as §1, §2, §3, §4
For assay [3], the target named is T1, recombinant yeast Hsp90 protein (rHsp90) (Saccharomyces cerevisiae, UniProt P02829).
T1 construct: made in house; host or cells: Escherichia coli
Nature of the assay: Hsp90 ATPase assay. It is filed as biochemical. To be noted: rHsp90 100 μg/mL, ATP 100 μM, 37° C., two hours, BIOMOL GREEN; read-out: IC50 value (concentration for 50% inhibition of ATP activity). As for the experimental part:
An Hsp90 ATPase assay was performed using a recombinant yeast Hsp90 protein (hereinafter called rHsp90). Yeast Hsp90 DNA was cloned from a yeast genomic DNA library according to a conventional method. The cloned yeast Hsp90 DNA was incorporated into a plasmid for expression in Escherichia coli, and the plasmid was expressed in Escherichia coli to obtain rHsp90.
The test compound was dissolved in DMSO to 10 mM. The dissolved solution was diluted with DMSO to eight concentrations ranging in three-fold dilutions from 4 mM. Each diluted solution was further 10-fold diluted with an assay buffer (100 mM Tris, pH 7.4, 20 mM KCl, 6 mM MgCl2) (concentration of each test compound solution: 400 μM, 133 μM, 44.4 μM, 14.8 μM, 4.94 μM, 1.65 μM, 0.549 μM, 0.183 μM; DMSO concentration: 10%).
rHsp90 was dissolved in a TE buffer (20 mM Tris, pH 7.4, 1 mM EDTA) to a concentration of 2.531 mg/mL. The dissolved solution was diluted with assay buffer to 125 μg/mL and dispensed to a 96-well assay plate at 40 μL per well (final concentration: 100 μg/mL).
The test compound solution was dispensed at 5 μL per well, and then the solutions in the respective wells were mixed using a plate mixer. 100 mM ATP (Sigma, Catalog No. A-7699) was diluted with assay buffer to 1 mM and dispensed at 5 μL per well (final concentration: 100 μM). The solutions in the respective wells were mixed using a plate mixer, and then the assay plate was allowed to stand in an incubator set at 37° C. for two hours.
BIOMOL GREEN Reagent (BIOMOL, Catalog No. AK-111) was dispensed at 100 μL per well, and the reaction was terminated. The solutions in the respective wells were mixed by pipetting (three times), and then 34% sodium citrate was dispensed at 10 μL per well. The solutions in the respective wells were mixed by pipetting (three times), and then the assay plate was left to stand at room temperature for 10 minutes. The absorbance at 630 nm of each well was measured with a microplate reader.
The ratio of the absorbance of the test compound-added group to the absorbance of the test compound-free group (T/C value) was determined by the following calculation formula, based on the assumption that the absorbance of the well to which the test compound and rHsp90 were added was A, the absorbance of the well to which only rHsp90 was added was B, and the absorbance of the well to which neither the test compound nor rHsp90 was added was C. T/C=(A−C)/(B−C)
Further, the concentration for 50% inhibition of ATP activity (IC50 value) was calculated using GraphPad Prism 4 (GraphPad Software, Inc.).

[4] abbreviates: Homo sapiens, SK-BR-3, MTT assay, 72 hours.
Where [5] appears, read: Homo sapiens, NCI-H460, MTT assay, 72 hours.

Read-outs that look alike come from different tables or passages of the source.

T1 sequence (P02829 whole entry): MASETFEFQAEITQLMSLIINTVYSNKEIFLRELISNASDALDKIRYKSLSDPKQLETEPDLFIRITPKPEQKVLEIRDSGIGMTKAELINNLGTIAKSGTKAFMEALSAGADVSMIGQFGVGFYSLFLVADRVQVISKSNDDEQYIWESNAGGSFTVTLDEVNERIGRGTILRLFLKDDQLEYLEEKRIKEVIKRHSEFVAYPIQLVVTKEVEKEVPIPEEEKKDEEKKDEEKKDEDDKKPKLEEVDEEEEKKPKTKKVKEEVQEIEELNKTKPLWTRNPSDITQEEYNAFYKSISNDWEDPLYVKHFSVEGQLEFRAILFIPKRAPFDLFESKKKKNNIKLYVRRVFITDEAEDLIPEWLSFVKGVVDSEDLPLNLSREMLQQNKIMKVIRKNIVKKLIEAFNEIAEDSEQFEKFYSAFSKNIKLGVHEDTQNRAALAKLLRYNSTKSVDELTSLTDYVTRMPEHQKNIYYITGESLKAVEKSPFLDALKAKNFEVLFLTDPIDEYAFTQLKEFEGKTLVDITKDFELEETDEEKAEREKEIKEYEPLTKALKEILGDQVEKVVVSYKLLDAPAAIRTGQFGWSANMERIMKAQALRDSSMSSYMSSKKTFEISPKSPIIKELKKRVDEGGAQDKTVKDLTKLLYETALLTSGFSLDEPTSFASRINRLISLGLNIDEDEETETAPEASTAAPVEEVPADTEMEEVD

As for `COc1c(C)cnc(Cn2nc3c4c(nc(N)nc42)SC(C(=O)Nc2nccs2)C3)c1C` (stereo not drawn) [Example 191, 4-Amino-2-[(4-methoxy-3,5-dimethylpyridin-2-yl)methyl]-N-(1,3-thiazol-2-yl)-7,8-dihydro-2H-6-thia-1,2,3,5-tetraazaacenaphthylene-7-carboxamide], the figures for the GI50 in assay [1] (setting [4]) and in assay [2] (setting [5]) were 20 nM and 57 nM, respectively. For the same compound, in assay [3], the IC50 was 1500 nM.
As for `COc1c(C)cnc(Cn2nc3c4c(nc(N)nc42)SC(C(=O)Nc2ncc(C)s2)C3)c1C` (stereo not drawn) [Example 194, 4-Amino-2-[(4-methoxy-3,5-dimethylpyridin-2-yl)methyl]-N-(5-methyl-1,3-thiazol-2-yl)-7,8-dihydro-2H-6-thia-1,2,3,5-tetraazaacenaphthylene-7-carboxamide], the GI50 in assay [1] (setting [4]) was found to be 17 nM; in assay [2] (setting [5]), 37 nM. The IC50 in assay [3] turned out to be 1800 nM.
Take `COc1c(C)cnc(Cn2nc3c4c(nc(N)nc42)SCC(C(=O)N2CCC(F)(F)C2)=C3)c1C` [Example 218, 8-[(3,3-Difluoropyrrolidin-1-yl)carbonyl]-2-[(4-methoxy-3,5-dimethylpyridin-2-yl)methyl]-2,7-dihydro-6-thia-1,2,3,5-tetraazabenzo[cd]azulen-4-amine]: the GI50 stood at 75 nM in assay [1] (Homo sapiens, SK-BR-3, 72 h) and 160 nM in assay [2] (Homo sapiens, NCI-H460, 72 h). The IC50 in assay [3] was 2300 nM.
For `COc1c(C)cnc(Cn2nc3c4c(nc(N)nc42)SCC(c2cccnc2)=C3)c1C` [Example 223, 2-[(4-Methoxy-3,5-dimethylpyridin-2-yl)methyl]-8-pyridin-3-yl-2,7-dihydro-6-thia-1,2,3,5-tetraazabenzo[cd]azulen-4-amine], the GI50 in assay [1] (Homo sapiens, SK-BR-3, 72 h) came to 140 nM; in assay [2] (Homo sapiens, NCI-H460, 72 h) it was 250 nM. Also, in assay [3], the IC50 was 1100 nM.
Take “N^8-(S)-Cyclopropyl-2-[(4-methoxy-3,5-dimethylpyridin-2-yl)methyl]-2,7,8,9-tetrahydro-6-thia-1,2,3,5-tetraazabenzo[cd]azulene-4,8-diamine [Example 181]”: the GI50 in assay [1] (SK-BR-3, MTT assay, 72 hours) was determined as 45 nM; in assay [2] (NCI-H460, MTT assay, 72 hours), 76 nM. For the same compound, the IC50 in assay [3] came to 3100 nM.
